Test results as given in PMC2233905 (The Journal of General Physiology, 2004).

Legend:
cardiac IsK currents = settings: concentrations up to 10 μM; ref Suessbrich et al., 1996; cited from earlier work
hEag2 channels = target: T1, hEag2 channels (Homo sapiens, UniProt Q8NCM2); experiment: hEag2 channels expressed in Xenopus oocytes; assay type: cell-based
T1 sequence (Q8NCM2 1-988): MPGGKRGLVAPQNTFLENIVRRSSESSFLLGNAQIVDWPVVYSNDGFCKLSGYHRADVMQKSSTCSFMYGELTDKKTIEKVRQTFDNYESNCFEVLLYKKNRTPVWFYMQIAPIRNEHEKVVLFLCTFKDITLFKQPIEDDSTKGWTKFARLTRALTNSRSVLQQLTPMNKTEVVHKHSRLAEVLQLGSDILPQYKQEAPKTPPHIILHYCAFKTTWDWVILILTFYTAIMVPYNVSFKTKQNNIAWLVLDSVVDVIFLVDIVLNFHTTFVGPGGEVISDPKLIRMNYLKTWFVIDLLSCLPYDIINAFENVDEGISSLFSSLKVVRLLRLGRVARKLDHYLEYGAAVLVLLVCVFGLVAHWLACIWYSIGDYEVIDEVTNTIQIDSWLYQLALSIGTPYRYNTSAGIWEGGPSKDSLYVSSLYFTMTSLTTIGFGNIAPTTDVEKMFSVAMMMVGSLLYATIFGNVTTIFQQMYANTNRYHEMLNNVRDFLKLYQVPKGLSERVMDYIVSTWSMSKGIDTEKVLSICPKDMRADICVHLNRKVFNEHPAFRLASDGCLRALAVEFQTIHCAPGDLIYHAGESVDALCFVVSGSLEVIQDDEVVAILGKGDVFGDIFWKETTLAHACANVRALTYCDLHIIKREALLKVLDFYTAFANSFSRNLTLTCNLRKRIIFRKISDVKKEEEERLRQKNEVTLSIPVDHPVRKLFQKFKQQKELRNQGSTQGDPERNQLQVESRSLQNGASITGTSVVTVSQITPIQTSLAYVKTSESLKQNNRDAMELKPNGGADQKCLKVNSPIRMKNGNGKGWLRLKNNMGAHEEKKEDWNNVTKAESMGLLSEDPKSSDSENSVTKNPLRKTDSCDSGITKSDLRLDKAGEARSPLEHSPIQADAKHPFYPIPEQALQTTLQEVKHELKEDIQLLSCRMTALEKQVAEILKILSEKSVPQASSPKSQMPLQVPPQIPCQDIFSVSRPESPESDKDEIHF

Kv4.2 = target: T2, Kv4.2 (Homo sapiens, UniProt Q9NZV8); experiment: Kv4.2 channels; assay type: cell-based; settings: concentrations up to 10 μM, unpublished data
T2 sequence (Q9NZV8 1-630): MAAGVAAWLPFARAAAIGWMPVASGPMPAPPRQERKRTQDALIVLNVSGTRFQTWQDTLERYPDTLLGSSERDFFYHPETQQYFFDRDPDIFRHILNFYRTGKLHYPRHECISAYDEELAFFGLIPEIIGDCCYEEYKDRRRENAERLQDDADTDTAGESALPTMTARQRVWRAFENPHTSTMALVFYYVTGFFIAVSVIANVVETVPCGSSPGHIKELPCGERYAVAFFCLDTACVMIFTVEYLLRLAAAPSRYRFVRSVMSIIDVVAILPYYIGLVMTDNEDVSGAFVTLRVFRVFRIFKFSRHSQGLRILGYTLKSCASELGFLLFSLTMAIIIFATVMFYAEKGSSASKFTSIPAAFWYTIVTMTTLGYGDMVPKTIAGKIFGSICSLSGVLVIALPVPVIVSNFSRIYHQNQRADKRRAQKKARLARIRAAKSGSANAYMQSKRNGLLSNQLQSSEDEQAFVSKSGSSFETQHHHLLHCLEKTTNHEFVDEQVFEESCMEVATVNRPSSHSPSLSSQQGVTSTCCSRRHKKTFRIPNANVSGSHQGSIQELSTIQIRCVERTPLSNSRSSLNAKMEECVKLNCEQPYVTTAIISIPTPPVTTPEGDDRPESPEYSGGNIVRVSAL

[1] = system: outward currents of ventricular cardiomyocytes; settings: concentrations <10 μM; ref Berul and Morad, 1995; cited from earlier work
cloned HERG = settings: HEK-293 cells; ref Zhou et al., 1999; cited from earlier work
Kv1.1 = settings: concentrations up to 10 μM; ref Suessbrich et al., 1996; cited from earlier work
[2] = system: Eag-like channels 2 (hELK2); settings: ref Becchetti et al., 2002; cited from earlier work

COc1ccc(CCN2CCC(Nc3nc4ccccc4n3Cc3ccc(F)cc3)CC2)cc1 [astemizole]
effect on current (cardiac IsK currents): no significant effects | IC50 (hEag2 channels): ~1.5 µM | effect on current (Kv4.2): no significant effects | effect on currents [1]: no effects | IC50 (cloned HERG): 0.0009 µM | effect on current (Kv1.1): no significant effects | sensitivity to astemizole [2]: not sensitive
